Results on 8 compounds are retold here after patent US8937089B2, “Synergistic mixtures of anthranilamide invertebrate pest control agents” (priority 2004, dated 2015).

What all share (assay): whole plant or invertebrate
Assay type in all cases: in vivo

Series [1] relates to cotton melon aphid (Aphis gossypii Glover). The procedure:
(§1) Test compounds were formulated using a solution containing 10% acetone, 90% water and 300 ppm X-77® Spreader Lo-Foam Formula non-ionic surfactant containing alkylarylpolyoxyethylene, free fatty acids, glycols and 2-propanol (Loveland Industries, Inc.) to provide the desired concentration in ppm. Formulated test solutions were then applied in 1 mL volumes through a SUJ2 atomizer nozzle with 1/8 JJ custom body (Spraying Systems Co.) positioned 1.27 cm (0.5 inches) above the top of each test unit.
For evaluating control of cotton melon aphid (Aphis gossypii Glover) through contact and/or systemic means, each test unit consisted of a small open container with a 6- to 7-day-old cotton plant inside. This was pre-infested by placing on a leaf of the test plant 30 to 40 aphids on a piece of leaf excised from a culture plant (cut-leaf method). The larvae moved onto the test plant as the leaf piece desiccated. After pre-infestation, the soil of the test unit was covered with a layer of sand.
Test compounds were formulated and sprayed as described for Test A. The applications were replicated three times. After spraying of the formulated test compounds, each test unit was allowed to dry for 1 hour and then a black, screened cap was placed on top. The test units were held for 6 days in a growth chamber at 19-21° C. and 50-70% relative humidity.

Series [2] has as its system green peach aphid (Myzus persicae Sulzer). The conditions noted are these: Green Peach Aphid; for mortality at 1000 ppm: rate 1000 ppm. The procedure:
as §1
For evaluating control of green peach aphid (Myzus persicae Sulzer) through contact and/or systemic means, each test unit consisted of a small open container with a 12- to 15-day-old radish plant inside. This was pre-infested by placing on a leaf of the test plant 30 to 40 aphids on a piece of leaf excised from a culture plant (cut-leaf method). The larvae moved onto the test plant as the leaf piece desiccated. After pre-infestation, the soil of the test unit was covered with a layer of sand.
Test compounds were formulated and sprayed as described in Test A, replicated three times. After spraying of the formulated test compound, each test unit was allowed to dry for 1 hour and then a black, screened cap was placed on top. The test units were held for 6 days in a growth chamber at 19-21° C. and 50-70% relative humidity.

In series [3] the test system is western flower thrip (Frankliniella occidentalis Pergande). The procedure:
as §1
For evaluating control of the western flower thrip (Frankliniella occidentalis Pergande) through contact and/or systemic means, each test unit consisted of a small open container with a 5- to 7-day-old bean (var. Soleil) plant inside.
Test solutions were formulated and sprayed with 3 replications as described for Test A. After spraying, the test units were allowed to dry for 1 hour, 22 to 27 adult thrips were added to each unit and then a black, screened cap was placed on top. The test units were held for 7 days at 25° C. and 45-55% relative humidity.

Series [4] deals with corn planthopper (Peregrines maidis). As for the experimental part:
as §1
For evaluating control of corn planthopper (Peregrines maidis) through contact and/or systemic means, each test unit consisted of a small open cylindrical container with a 3- to 4-day-old corn (maize) plant (spike) inside. White sand was added to the top of the soil prior to application. Test compounds were formulated and sprayed with 3 replications as described for Test A. After spraying, the test units were allowed to dry for 1 hour before they were post-infested with 10 to 20 corn planthoppers (18- to 20-day-old nymphs) by sprinkling them onto the sand with a salt shaker. A black, screened cap was placed on the top of each container. The test units were held for 6 days in a growth chamber at 19-21° C. and 50-70% relative humidity.

Series [5] concerns silverleaf whitefly (Bemisia argentifolii Bellows and Perring). The settings on record: Table 2B.
Text: For evaluating control of silverleaf whitefly (Bemisia argentifolii Bellows and Perring) through contact and/or systemic means, each test unit consisted of a small open container with a 12- to 14-day-old cotton plant inside. This was pre-infested by placing test units into cages infested with adult whiteflies so that oviposition on the cotton leaves could occur. The adults were removed from the plants with an air-blast nozzle, and the test units were capped. The test units were then stored 2 to 3 days before spraying.
as §1
The results for all experimental compositions in this test were replicated three times. After spraying of the formulated test composition, each test unit was allowed to dry for 1 hour and the cap removed. The test units were held for 13 days in a growth chamber at 28° C. and 50-70% relative humidity.

In series [6] the test system is potato leafhopper (Empoasca fabae Harris). The procedure:
as §1
[…] White sand was added to the top of the soil, and one of the primary leaves was excised prior to application. Test compounds were formulated and sprayed with 3 replications as described for Test A. After spraying, the test units were allowed to dry for 1 hour before they were infested with 5 potato leafhoppers (18- to 21-day-old adults). A black, screened cap was placed on the top of each container. The test units were held for 6 days in a growth chamber at 19-21° C. and 50-70% relative humidity.

[7] abbreviates: rate 500 ppm, single compound, spray, 7 days.
Where [8] appears, read: Corn Plant Hopper, rate 100 ppm.
[9] abbreviates: Corn Plant Hopper, rate 1000 ppm.
Where [10] appears, read: rate 100 ppm, single compound, spray, 7 days.
Where [11] appears, read: Myzus persicae, in Raphanus sativus, read-out: % mortality (obs).

As for Pyridalyl, the “% mortality (obs)” value in series [1] (rate 1 ppm) came to 22%; in series [1] (rate 1.5 ppm), 34%; in series [1] (rate 2 ppm), 32%; in series [2] (rate 1 ppm), 18%; in series [2] (rate 10 ppm), 8%; in series [2] (rate 20 ppm), 3%. Also, the “% mortality (obs)” value stood at 30% in series [3] (rate 5 ppm, single compound, spray, 7 days); 60% in series [3] (rate 50 ppm, single compound, spray, 7 days); 100% in series [3] (setting [7]); 2% in series [4] (Corn Plant Hopper, rate 10 ppm); 6% in series [4] (setting [8]); 11% in series [4] (setting [9]). In addition, the “% mortality (obs)” value in series [5] (rate 10 ppm) stood at 0%; in series [5] (rate 25 ppm) it was 0%; in series [5] (rate 100 ppm) it was 0%; in series [6] (rate 0.5 ppm, alone) it was 13%; in series [6] (rate 5 ppm, alone) it was 13%; in series [6] (rate 50 ppm, alone), 7%.
In the case of Abamectin, the “% mortality (obs)” value in series [1] (rate 0.08 ppm) turned out to be 35%; in series [1] (rate 0.4 ppm), 58%; in series [1] (rate 2 ppm) it was 100%; in series [2] (rate 0.08 ppm), 47%; in series [2] (rate 0.4 ppm) it was 100%; in series [2] (rate 2 ppm), 100%. Moreover, the “% mortality (obs)” value in series [3] (rate 1 ppm, single compound, spray, 7 days) is on record as 100%; in series [3] (rate 10 ppm, single compound, spray, 7 days), 100%; in series [3] (setting [10]), 100%; in series [4] (Corn Plant Hopper, rate 1.6 ppm) it was 7%; in series [4] (Corn Plant Hopper, rate 8 ppm), 93%; in series [4] (Corn Plant Hopper, rate 40 ppm) it was 100%. The “% mortality (obs)” value in series [6] (rate 10 ppm, alone) was found to be 47%; in series [6] (rate 100 ppm, alone), 100%; in series [6] (rate 1000 ppm, alone) it was 100%.
Regarding Lambda-cyhalothrin, the “% mortality (obs)” value in series [3] (in vivo) stood at 40%; in series [4] (in vivo), 7%.
In the case of Dinotefuran, the “% mortality (obs)” value in series [3] (in vivo) was determined as 50%; in series [4] (in vivo), 5%; in series [6] (in vivo), 7%.
Broadly, the mortality is the share of the test organisms that died. For the compound `O=C(NC(=O)c1c(F)cccc1F)Nc1cc(Cl)c(OC(F)(F)C(F)F)c(Cl)c1` [Hexaflumuron], the mortality at 30 ppm in series [1] (Aphis gossypii, rate 30 ppm, read-out: % mortality (obs)) was 32%. Also, the mortality at 1000 ppm in series [1] (Aphis gossypii, rate 1000 ppm, read-out: % mortality (obs)) was determined as 30%; in series [2] (setting [11]) it was 6%; in series [4] (Corn Plant Hopper, rate 1000 ppm, read-out: % mortality (obs)), 5%; in series [6] (Empoasca fabae, rate 1000 ppm, alone, read-out: % mortality (obs)) it was 13%. Also, the mortality at 3000 ppm in series [1] (Aphis gossypii, rate 3000 ppm, read-out: % mortality (obs)) stood at 29%; in series [2] (Myzus persicae, in Raphanus sativus, rate 3000 ppm, read-out: % mortality (obs)), 13%; in series [4] (Corn Plant Hopper, rate 3000 ppm, read-out: % mortality (obs)), 4%; in series [6] (Empoasca fabae, rate 3000 ppm, alone, read-out: % mortality (obs)), 27%. The mortality at 100 ppm in series [2] (Myzus persicae, in Raphanus sativus, rate 100 ppm, read-out: % mortality (obs)) was 8%; in series [4] (Corn Plant Hopper, rate 100 ppm, read-out: % mortality (obs)), 6%; in series [6] (Empoasca fabae, rate 100 ppm, alone, read-out: % mortality (obs)), 13%. Moreover, the mortality at 10 ppm in series [5] (Bemisia argentifolii, in Gossypium hirsutum, rate 10 ppm, read-out: % mortality (obs)) turned out to be 1%. For the same compound, in series [5] (Bemisia argentifolii, in Gossypium hirsutum, rate 60 ppm, read-out: % mortality (obs)), the mortality at 60 ppm amounted to 0%. Also, the mortality at 360 ppm in series [5] (Bemisia argentifolii, in Gossypium hirsutum, rate 360 ppm, read-out: % mortality (obs)) worked out at 0%.
As to Clothianidin, the “% mortality (obs)” value in series [1] (rate 0.08 ppm) was found to be 75%; in series [1] (rate 0.4 ppm), 91%; in series [1] (rate 2 ppm), 99%; in series [2] (rate 0.08 ppm), 100%; in series [2] (rate 0.4 ppm) it was 100%; in series [2] (rate 2 ppm) it was 100%. Also, the “% mortality (obs)” value in series [3] (setting [10]) came to 90%; in series [3] (setting [7]) it was 100%; in series [3] (rate 1000 ppm, single compound, spray, 7 days) it was 100%; in series [4] (Corn Plant Hopper, rate 10 ppm), 100%; in series [4] (setting [8]) it was 100%; in series [4] (setting [9]), 100%. Moreover, the “% mortality (obs)” value in series [6] (rate 10 ppm, alone) is given as 93%; in series [6] (rate 100 ppm, alone) it was 100%; in series [6] (rate 1000 ppm, alone) it was 100%.
Consider `COC(C)(C)CCC[C@H](C)C/C=C/C(C)=C/C(=O)OC(C)C` (racemic) [Methoprene], for which the “% mortality (obs)” value in series [6] (in vivo) is 0%.
Regarding `O=C(NC(=O)c1c(F)cccc1F)Nc1cc(Cl)c(OC(F)(F)C(F)C(F)(F)F)cc1Cl` (stereo not drawn) [Lufenuron], the mortality at 0.08 ppm was 28% in series [1] (Aphis gossypii, rate 0.08 ppm, read-out: % mortality (obs)); 9% in series [4] (Corn Plant Hopper, rate 0.08 ppm, read-out: % mortality (obs)); 40% in series [6] (Empoasca fabae, rate 0.08 ppm, alone, read-out: % mortality (obs)). Further, the mortality at 0.4 ppm in series [1] (Aphis gossypii, rate 0.4 ppm, read-out: % mortality (obs)) was 39%; in series [4] (Corn Plant Hopper, rate 0.4 ppm, read-out: % mortality (obs)) it was 7%; in series [6] (Empoasca fabae, rate 0.4 ppm, alone, read-out: % mortality (obs)), 53%. Further, the mortality at 2 ppm was 58% in series [1] (Aphis gossypii, rate 2 ppm, read-out: % mortality (obs)); 7% in series [4] (Corn Plant Hopper, rate 2 ppm, read-out: % mortality (obs)); 40% in series [6] (Empoasca fabae, rate 2 ppm, alone, read-out: % mortality (obs)). Besides, the mortality at 50 ppm in series [2] (Myzus persicae, in Raphanus sativus, rate 50 ppm, read-out: % mortality (obs)) came out at 34%. Moreover, the mortality at 250 ppm in series [2] (Myzus persicae, in Raphanus sativus, rate 250 ppm, read-out: % mortality (obs)) was found to be 15%. Also, the mortality at 1000 ppm in series [2] (setting [11]) came out at 28%. Moreover, in series [3] (Frankliniella occidentalis, 168 h, rate 10 ppm, single compound, spray, 7 days, read-out: % mortality (obs)), the mortality at 10 ppm was 90%. Also, the mortality at 100 ppm in series [3] (Frankliniella occidentalis, 168 h, rate 100 ppm, single compound, spray, 7 days, read-out: % mortality (obs)) is 80%. In addition, in series [3] (Frankliniella occidentalis, 168 h, rate 500 ppm, single compound, spray, 7 days, read-out: % mortality (obs)), the mortality at 500 ppm is 80%.
